Data reported in US9175003B2, “Substituted azoanthracene derivatives and intermediates for preparation thereof” (TransTech Pharma, LLC, priority 2009, dated 2015).

What follows are compounds tested against human GLP-1 receptor (Homo sapiens (Human), UniProt P43220). Settings: read-out: Mean EC50; cAMP, HTRF detection, 30 min at 37° C., HEK-293 cells expressing cloned human GLP-1 receptor.
Sequence of human GLP-1 receptor (P43220 24-463): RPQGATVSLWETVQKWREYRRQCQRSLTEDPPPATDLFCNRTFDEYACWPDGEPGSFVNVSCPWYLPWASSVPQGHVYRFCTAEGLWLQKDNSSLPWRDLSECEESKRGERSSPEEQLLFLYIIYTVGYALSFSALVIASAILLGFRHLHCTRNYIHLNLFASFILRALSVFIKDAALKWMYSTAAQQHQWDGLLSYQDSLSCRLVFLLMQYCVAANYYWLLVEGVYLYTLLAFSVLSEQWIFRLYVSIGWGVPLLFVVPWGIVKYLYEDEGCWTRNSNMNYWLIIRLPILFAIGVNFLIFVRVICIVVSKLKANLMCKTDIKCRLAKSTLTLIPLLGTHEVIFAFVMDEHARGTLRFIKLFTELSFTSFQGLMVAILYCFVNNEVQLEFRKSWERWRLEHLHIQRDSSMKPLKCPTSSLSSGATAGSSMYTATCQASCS

Compound	EC50
Cc1nc(C(=O)N2Cc3cc4c(cc3C[C@H]2C(=O)N[C@@H](Cc2ccc(-c3ccnc(C)c3C)cc2)C(=O)O)OC[C@H](c2cccc(OCc3ccc(Cl)c(Cl)c3)c2)O4)c(C)o1 [Example 415, (S)-2-{[(3S,8S)-3-[3-(3,4-Dichloro-benzyloxy)-phenyl]-7-(2,5-dimethyl-oxazole-4-carbonyl)-2,3,6,7,8,9-hexahydro-[1,4]dioxino[2,3-g]isoquinoline-8-carbonyl]-amino}-3-[4-(2,3-dimethyl-pyridin-4-yl)-phenyl]-propionic acid]	75 nM
Cc1nccc(-c2ccc(C[C@H](NC(=O)[C@@H]3Cc4cc5c(cc4CN3C(=O)NC3(C)CCCCC3)O[C@@H](c3ccc(OCc4ccc(Cl)c(Cl)c4)cc3)CO5)C(=O)O)cc2)c1C [Example 438, (S)-2-{[(3S,8S)-3-[4-(3,4-Dichloro-benzyloxy)-phenyl]-7-(1-methyl-cyclohexylcarbamoyl)-2,3,6,7,8,9-hexahydro-[1,4]dioxino[2,3-g]isoquinoline-8-carbonyl]-amino}-3-[4-(2,3-dimethyl-pyridin-4-yl)phenyl]-propionic acid]	37 nM
Cc1nccc(-c2ccc(C[C@H](NC(=O)[C@@H]3Cc4cc5c(cc4CN3C(=O)C(C)(C)C)O[C@@H](c3ccc(OCc4ccc(Cl)c(Cl)c4)cc3)CO5)C(=O)O)cc2)c1C [Example 152, (S)-2-{[(3S,8S)-3-[4-(3,4-Dichloro-benzyloxy)-phenyl]-7-(2,2-dimethyl-propionyl)-2,3,6,7,8,9-hexahydro-[1,4]dioxino[2,3-g]isoquinoline-8-carbonyl]-amino}-3-[4-(2,3-dimethyl-pyridin-4-yl)-phenyl]-propionic acid]	80 nM
CC[C@H]1CC[C@H](Oc2ccc([C@H]3COc4cc5c(cc4O3)CN(C(=O)c3nc(C)oc3C)[C@H](C(=O)N[C@@H](Cc3ccc(-c4ccnc(C)c4C)cc3)C(=O)O)C5)cc2)CC1 [Example 373, (S)-2-({(3S,8S)-7-(2,5-Dimethyl-oxazole-4-carbonyl)-3-[-4-(trans-4-ethyl-cyclohexyloxy)-phenyl]-2,3,6,7,8,9-hexahydro-[1,4]dioxino[2,3-g]isoquinoline-8-carbonyl}-amino)-3-[4-(2,3-dimethyl-pyridin-4-yl)-phenyl]-propionic acid]	187 nM
Cc1nc(C(=O)N2Cc3cc4c(cc3C[C@H]2C(=O)N[C@@H](Cc2ccc(-c3ccnc(C)c3C)cc2)C(=O)O)OC[C@H](c2ccc(OCc3cc(F)ccc3F)cc2)O4)c(C)o1 [Example 356, (S)-2-{[(3S,8S)-3-[4-(2,5-Difluoro-benzyloxy)-phenyl]-7-(2,5-dimethyl-oxazole-4-carbonyl)-2,3,6,7,8,9-hexahydro-[1,4]dioxino[2,3-g]isoquinoline-8-carbonyl]-amino}-3-[4-(2,3-dimethyl-pyridin-4-yl)-phenyl]-propionic acid]	57 nM
Cc1nc(C(=O)N2Cc3cc4c(cc3C[C@H]2C(=O)N[C@@H](Cc2ccc(-c3ccnc(C)c3C)cc2)C(=O)O)OC[C@H](c2ccc(O[C@H]3CC[C@@H](C)CC3)cc2)O4)c(C)o1 [Example 381, (S)-2-({(3S,8S)-7-(2,5-Dimethyl-oxazole-4-carbonyl)-3-[4-(cis-4-methyl-cyclohexyloxy)-phenyl]-2,3,6,7,8,9-hexahydro-[1,4]dioxino[2,3-g]isoquinoline-8-carbonyl}-amino)-3-[4-(2,3-dimethyl-pyridin-4-yl)-phenyl]-propionic acid]	313 nM
Cc1nccc(-c2ccc(C[C@H](NC(=O)[C@@H]3Cc4cc5c(cc4CN3C(=O)N[C@@H](C)c3ccccc3)O[C@@H](c3ccc(OCc4ccc(Cl)c(Cl)c4)cc3)CO5)C(=O)O)cc2)c1C [Example 239, (S)-2-{[(3S,8S)-3-[4-(3,4-Dichloro-benzyloxy)-phenyl]-7-((S)-1-phenyl-ethylcarbamoyl)-2,3,6,7,8,9-hexahydro-[1,4]dioxino[2,3-g]isoquinoline-8-carbonyl]-amino}-3-[4-(2,3-dimethyl-pyridin-4-yl)-phenyl]-propionic acid]	82 nM
CC[C@@H](c1ccccc1)N1Cc2cc3c(cc2C[C@H]1C(=O)N[C@@H](Cc1ccc(-c2cc(C)ncc2C)cc1)C(=O)O)OC[C@H](c1ccc(OCc2ccc(Cl)c(Cl)c2)cc1)O3 [Example 190, (S)-2-{[(3S,8S)-3-[4-(3,4-Dichloro-benzyloxy)-phenyl]-7-((S)-1-phenyl-propyl)-2,3,6,7,8,9-hexahydro-[1,4]dioxino[2,3-g]isoquinoline-8-carbonyl]-amino}-3-[4-(2,5-dimethyl-pyridin-4-yl)-phenyl]-propionic acid]	11 nM
Cc1nc(C)c(S(=O)(=O)N2Cc3cc4c(cc3C[C@H]2C(=O)N[C@@H](Cc2ccc(-c3ccc(C#N)cc3)cc2)C(=O)O)OCC(c2ccc(OCc3ccc(Cl)c(Cl)c3)cc2)O4)s1 (stereo in doubt) [Example 130, (S)-3-(4′-Cyano-biphenyl-4-yl)-2-{[(S)-3-[4-(3,4-dichloro-benzyloxy)-phenyl]-7-(2,4-dimethyl-thiazole-5-sulfonyl)-2,3,6,7,8,9-hexahydro-[1,4]dioxino[2,3-g]isoquinoline-8-carbonyl]-amino}-propionic acid]	111 nM
CC(=O)Nc1nc(-c2ccc(S(=O)(=O)N3Cc4cc5c(cc4C[C@H]3C(=O)N[C@@H](Cc3ccc(-c4ccc(C#N)cc4)cc3)C(=O)O)OCC(c3ccc(OCc4ccc(Cl)c(Cl)c4)cc3)O5)cc2)cs1 (stereo in doubt) [Example 138, (S)-2-({(S)-7-[4-(2-Acetylamino-thiazol-4-yl)-benzenesulfonyl]-3-[4-(3,4-dichloro-benzyloxy)-phenyl]-2,3,6,7,8,9-hexahydro-[1,4]dioxino[2,3-g]isoquinoline-8-carbonyl}-amino)-3-(4′-cyano-biphenyl-4-yl)-propionic acid]	241 nM
Cc1nccc(-c2ccc(C[C@H](NC(=O)[C@@H]3Cc4cc5c(cc4CN3C(=O)N[C@H](C)c3ccccc3)O[C@@H](c3ccc(OCc4cc(F)cc(F)c4)cc3)CO5)C(=O)O)cc2)c1C [Example 365, (S)-2-{[(3S,8S)-3-[4-(3,5-Difluoro-benzyloxy)-phenyl]-7-((R)-1-phenyl-ethylcarbamoyl)-2,3,6,7,8,9-hexahydro-[1,4]dioxino[2,3-g]isoquinoline-8-carbonyl]-amino}-3-[4-(2,3-dimethyl-pyridin-4-yl)-phenyl]-propionic acid]	95 nM
CCC(CC)Oc1ccc([C@H]2COc3cc4c(cc3O2)CN([C@@H](CC)c2ccccc2)[C@H](C(=O)N[C@@H](Cc2ccc(-c3ccnc(C)c3C)cc2)C(=O)O)C4)cc1 [Example 166, (S)-3-[4-(2,3-Dimethyl-pyridin-4-yl)-phenyl]-2-{[(3S,8S)-3-[4-(1-ethyl-propoxy)-phenyl]-7-((S)-1-phenyl-propyl)-2,3,6,7,8,9-hexahydro-[1,4]dioxino[2,3-g]isoquinoline-8-carbonyl]-amino}-propionic acid]	22 nM
Cc1nc(N)sc1S(=O)(=O)N1Cc2cc3c(cc2C[C@H]1C(=O)N[C@@H](Cc1ccc(-c2ccc(C#N)cc2)cc1)C(=O)O)OC[C@@H](c1ccc(OCc2ccc(Cl)c(Cl)c2)cc1)O3 [Example 60, (S)-2-({(3R,8S)-7-(2-Amino-4-methyl-thiazole-5-sulfonyl)-3-[4-(3,4-dichloro-benzyloxy)-phenyl]-2,3,6,7,8,9-hexahydro-[1,4]dioxino[2,3-g]isoquinoline-8-carbonyl}-amino)-3-(4′-cyano-biphenyl-4-yl)-propionic acid]	109 nM
